24 compounds from patent US9353107B2 (Aurigene Discovery Technologies Limited, priority 2012, dated 2016) can be followed below.

Where a name gives a salt, the structure may show the parent alone.

The experiment concerns the target T1, recombinant human ALK enzyme (ALK WT) (Homo sapiens, UniProt Q9UM73).
T1 construct: purchased Carna Biosciences 08-518
The experiment is described as follows: ALK WT cell free enzymatic assay (TR-FRET). It is filed as biochemical. Conditions: 1 μM ATP; for IC50: 10 point dose response; for inhibition at 0.1 µM: compound at 100 nM; for inhibition at 0.1 µM / inhibition at 1 µM: 30 min pre-incubation; for inhibition at 1 µM: compound at 1 μM. The method in brief: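 Read-out is TR-FRET (665 nm/615 nm ratio) using an Eu-labeled anti-phosphotyrosine antibody. Compound is pre-incubated 30 min with recombinant human ALK, then reacted 30 min with 1 μM ATP and 40 nM Poly GT substrate. Values are percent inhibition at 100 nM and 1 μM, plus IC50 from 10-point variable-slope regression.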

T1 sequence (Q9UM73 1058-1620 limits assumed): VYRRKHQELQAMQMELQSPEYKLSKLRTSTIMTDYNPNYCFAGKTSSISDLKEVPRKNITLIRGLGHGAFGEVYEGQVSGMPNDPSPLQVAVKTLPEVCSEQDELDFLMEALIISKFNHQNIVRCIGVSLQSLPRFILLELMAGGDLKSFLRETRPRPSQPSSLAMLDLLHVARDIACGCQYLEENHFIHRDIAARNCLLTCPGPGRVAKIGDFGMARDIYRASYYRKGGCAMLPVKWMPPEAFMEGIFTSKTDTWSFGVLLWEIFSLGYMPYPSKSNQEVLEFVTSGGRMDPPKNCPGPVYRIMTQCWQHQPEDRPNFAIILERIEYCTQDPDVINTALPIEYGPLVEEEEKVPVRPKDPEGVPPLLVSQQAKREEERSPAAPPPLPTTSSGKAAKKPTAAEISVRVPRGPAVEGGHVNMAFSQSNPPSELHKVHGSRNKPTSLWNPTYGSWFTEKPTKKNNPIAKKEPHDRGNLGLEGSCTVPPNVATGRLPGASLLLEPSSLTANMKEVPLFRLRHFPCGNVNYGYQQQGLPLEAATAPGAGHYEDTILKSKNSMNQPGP

Consider `Cc1cccc(Cn2cc(-c3c[nH]c4ncc(-c5ccc(C6CCNCC6)cc5)cc34)cn2)c1` [Example 85, 3-(1-(3-methylbenzyl)-1H-pyrazol-4-yl)-5-(4-(piperidin-4-yl)phenyl)-1H-pyrrolo[2,3-b]pyridine], for which the IC50 – broadly, the concentration that inhibits the measured activity by half – is less than 50 nM; the inhibition (usually the percentage by which the read-out fell short of the control) at 0.1 µM worked out at 95%; the inhibition at 1 µM is 100%.
Regarding `COc1cc(-c2cnc3[nH]cc(-c4cnn(Cc5cccc(F)c5)c4)c3c2)ccc1C1CCNCC1` [Example 86, 3-(1-(3-fluorobenzyl)-1H-pyrazol-4-yl)-5-(3-methoxy-4-(piperidin-4-yl)phenyl)-1H-pyrrolo[2,3-b]pyridine], the IC50 was less than 50 nM, the inhibition at 0.1 µM was found to be 96% and the inhibition at 1 µM stood at 98%.
The matching figures for `COc1cccc(Cn2cc(-c3c[nH]c4ncc(-c5ccc(C6CCNCC6)cc5)cc34)cn2)c1` [Example 87, 3-(1-(3-methoxybenzyl)-1H-pyrazol-4-yl)-5-(4-(piperidin-4-yl)phenyl)-1H-pyrrolo[2,3-b]pyridine]: less than 50 nM, 84% and 99%.
On the same counts, the results for `c1ccc(CCn2cc(-c3c[nH]c4ncc(-c5ccc(C6CCNCC6)cc5)cc34)cn2)cc1` [Example 88, 3-(1-phenethyl-1H-pyrazol-4-yl)-5-(4-(piperidin-4-yl)phenyl)-1H-pyrrolo[2,3-b]pyridine] are less than 50 nM, 89% and 99%.
On the same counts, the results for `c1cncc(Cn2cc(-c3c[nH]c4ncc(-c5ccc(C6CCNCC6)cc5)cc34)cn2)c1` [Example 89, 5-(4-(piperidin-4-yl)phenyl)-3-(1-(pyridin-3-ylmethyl)-1H-pyrazol-4-yl)-1H-pyrrolo[2,3-b]pyridine] are less than 50 nM, 84% and 98%.
Consider `Cc1nn(Cc2cccc(F)c2)cc1-c1c[nH]c2ncc(-c3ccc(C4CCNCC4)cc3)cc12` [Example 90, 3-(1-(3-fluorobenzyl)-3-methyl-1H-pyrazol-4-yl)-5-(4-(piperidin-4-yl)phenyl)-1H-pyrrolo[2,3-b]pyridine], for which the IC50 was less than 50 nM, the inhibition at 0.1 µM was 97% and the inhibition at 1 µM amounted to 100%.
On the same counts, the results for `Cc1c(-c2c[nH]c3ncc(-c4ccc(C5CCNCC5)cc4)cc23)cnn1Cc1cccc(F)c1` [Example 91, 3-(1-(3-fluorobenzyl)-5-methyl-1H-pyrazol-4-yl)-5-(4-(piperidin-4-yl)phenyl)-1H-pyrrolo[2,3-b]pyridine] are less than 50 nM, 99% and 100%.
On the same counts, the results for `Cc1nn(Cc2cccc(F)c2)c(C)c1-c1c[nH]c2ncc(-c3ccc(C4CCNCC4)cc3)cc12` [Example 92, 3-(1-(3-fluorobenzyl)-3,5-dimethyl-1H-pyrazol-4-yl)-5-(4-(piperidin-4-yl)phenyl)-1H-pyrrolo[2,3-b]pyridine] are less than 50 nM, 98% and 100%.
The matching figures for `c1ccc(Cn2cc(-c3c[nH]c4ncc(-c5ccc(C6CCNCC6)cc5)cc34)cn2)nc1` [Example 93, 5-(4-(piperidin-4-yl)phenyl)-3-(1-(pyridin-2-ylmethyl)-1H-pyrazol-4-yl)-1H-pyrrolo[2,3-b]pyridine]: less than 50 nM, 79% and 97%.
Take `Cc1nn(Cc2cccc(F)c2)c(C)c1-c1c[nH]c2ncc(-c3cccc(NC4CCNCC4)c3)cc12` [Example 94, N-(3-(3-(1-(3-fluorobenzyl)-3,5-dimethyl-1H-pyrazol-4-yl)-1H-pyrrolo[2,3-b]pyridin-5-yl)phenyl)piperidin-4-amine]: the IC50 was less than 50 nM, the inhibition at 0.1 µM is 98% and the inhibition at 1 µM was determined as 100%.
The matching figures for `c1ccc(CCn2cc(-c3c[nH]c4ncc(-c5cccc(NC6CCNCC6)c5)cc34)cn2)cc1` [Example 95, N-(3-(3-(1-phenethyl-1H-pyrazol-4-yl)-1H-pyrrolo[2,3-b]pyridin-5-yl)phenyl)piperidin-4-amine]: 50 to 250 nM, 83% and 99%.
On the same counts, the results for `Cc1nn(Cc2cccc(F)c2)c(C)c1-c1c[nH]c2ncc(-c3cccc(OC4CCNCC4)c3)cc12` [Example 96, 3-(1-(3-fluorobenzyl)-3,5-dimethyl-1H-pyrazol-4-yl)-5-(3-(piperidin-4-yloxy)phenyl)-1H-pyrrolo[2,3-b]pyridine] are less than 50 nM, 70% and 100%.
On the same counts, the results for `c1ccc(CCn2cc(-c3c[nH]c4ncc(-c5cccc(OC6CCNCC6)c5)cc34)cn2)cc1` [Example 97, 3-(1-phenethyl-1H-pyrazol-4-yl)-5-(3-(piperidin-4-yloxy)phenyl)-1H-pyrrolo[2,3-b]pyridine] are less than 50 nM, 76% and 98%.
With `c1ccc(CCn2cc(-c3c[nH]c4ncc(-c5cccc(CC6CCNCC6)c5)cc34)cn2)cc1` [Example 98, 3-(1-phenethyl-1H-pyrazol-4-yl)-5-(3-(piperidin-4-ylmethyl)phenyl)-1H-pyrrolo[2,3-b]pyridine], the IC50 lay in the range of 50 to 250 nM, the inhibition at 0.1 µM came out at 24% and the inhibition at 1 µM was determined as 95%.
The matching figures for `Cc1nn(Cc2cccc(F)c2)c(C)c1-c1c[nH]c2ncc(-c3cccc(CC4CCNCC4)c3)cc12` [Example 99, 3-(1-(3-fluorobenzyl)-3,5-dimethyl-1H-pyrazol-4-yl)-5-(3-(piperidin-4-ylmethyl)phenyl)-1H-pyrrolo[2,3-b]pyridine]: less than 50 nM, 89% and 99%.
On the same counts, the results for `Fc1cccc(Cn2cc(-c3c[nH]c4ncc(-c5ccc(NC6CCNCC6)cc5)cc34)cn2)c1` [Example 100, N-(4-(3-(1-(3-fluorobenzyl)-1H-pyrazol-4-yl)-1H-pyrrolo[2,3-b]pyridin-5-yl)phenyl)piperidin-4-amine] are less than 50 nM, 100% and 100%.
The matching figures for `Cc1nn(Cc2cccc(F)c2)c(C)c1-c1c[nH]c2ncc(-c3ccc(NC4CCNCC4)cc3)cc12` [Example 101, N-(4-(3-(1-(3-fluorobenzyl)-3,5-dimethyl-1H-pyrazol-4-yl)-1H-pyrrolo[2,3-b]pyridin-5-yl)phenyl)piperidin-4-amine]: less than 50 nM, 99% and 100%.
Take `Fc1cccc(Cn2cc(-c3c[nH]c4ncc(-c5cccc(CC6CCNCC6)c5)cc34)cn2)c1` [Example 102, 3-(1-(3-fluorobenzyl)-1H-pyrazol-4-yl)-5-(3-(piperidin-4-ylmethyl)phenyl)-1H-pyrrolo[2,3-b]pyridine]: the IC50 is less than 50 nM, the inhibition at 0.1 µM is 91% and the inhibition at 1 µM amounted to 100%.
The matching figures for `C[C@H](O)CN1CCC(c2ccc(-c3cnc4[nH]cc(-c5cnn(Cc6cccc(F)c6)c5)c4c3)cn2)CC1` [Example 102A, (S)-1-(4-(5-(3-(1-(3-fluorobenzyl)-1H-pyrazol-4-yl)-1H-pyrrolo[2,3-b]pyridin-5-yl)pyridin-2-yl)piperidin-1-yl)propan-2-ol]: less than 50 nM, 91% and 94%.
Consider `NC(=O)CN1CCN(c2ccc(-c3cnc4[nH]cc(-c5cnn(Cc6cccc(F)c6)c5)c4c3)cc2)CC1` [Example 103, 2-(4-(4-(3-(1-(3-fluorobenzyl)-1H-pyrazol-4-yl)-1H-pyrrolo[2,3-b]pyridin-5-yl)phenyl)piperazin-1-yl)acetamide], for which the IC50 is less than 50 nM, the inhibition at 0.1 µM turned out to be 95% and the inhibition at 1 µM worked out at 100%.
On the same counts, the results for `C[C@H](O)CN1CCN(c2ccc(-c3cnc4[nH]cc(-c5cnn(Cc6cccc(F)c6)c5)c4c3)cc2)CC1` [Example 104, (S)-1-(4-(4-(3-(1-(3-fluorobenzyl)-1H-pyrazol-4-yl)-1H-pyrrolo[2,3-b]pyridin-5-yl)phenyl)piperazin-1-yl)propan-2-ol] are less than 50 nM, 98% and 100%.
On the same counts, the results for `Nc1cc(-c2cnc3[nH]cc(-c4cnn(Cc5cccc(F)c5)c4)c3c2)ccc1N1CCNCC1` [Example 105, 5-(3-(1-(3-fluorobenzyl)-1H-pyrazol-4-yl)-1H-pyrrolo[2,3-b]pyridin-5-yl)-2-(piperazin-1-yl) aniline] are less than 50 nM, 98% and 100%.
As for `CS(=O)(=O)Nc1cc(-c2cnc3[nH]cc(-c4cnn(Cc5cccc(F)c5)c4)c3c2)ccc1N1CCNCC1` [Example 106, N-(5-(3-(1-(3-fluorobenzyl)-1H-pyrazol-4-yl)-1H-pyrrolo[2,3-b]pyridin-5-yl)-2-(piperazin-1-yl)phenyl)methanesulfonamide hydrochloride], the IC50 is less than 50 nM, the inhibition at 0.1 µM came to 97% and the inhibition at 1 µM stood at 100%.
The matching figures for `CS(=O)(=O)Nc1cc(-c2cnc3[nH]cc(-c4cnn(CCc5ccccc5)c4)c3c2)ccc1N1CCNCC1` [Example 107, N-(5-(3-(1-phenethyl-1H-pyrazol-4-yl)-1H-pyrrolo[2,3-b]pyridin-5-yl)-2-(piperazin-1-yl)phenyl) methanesulfonamide hydrochloride]: less than 50 nM, 99% and 100%.
